Reference: patent EP4238581A1, “TARGETED DELIVERY OF OLIGONUCLEOTIDES INTO EUKARYOTIC CELLS USING HYBRID MALTOSE/CYCLODEXTRIN POLYPLEXES” (Technische Universität Dresden e. V., priority 2022, dated 2023)

Tested on: 293T-PSCA cells
Experiment: Endocytosis inhibitors and GFP transfection by scFv(AM1)-P-BAP hybrid polyplexes
Type: cell-based
Conditions: cells transfected with scFv(AM1)-P-BAP hybrid polyplexes loaded with MC encoding GFP; inhibitor concentration not given
Text: To investigate if a receptor-mediated endocytosis contributes to uptake of scFv-P-BAP hybrid polyplexes clathrin-dependent and clathrin-independent endocytosis was blocked using chlorpromazine and filipin III.

| Compound | fraction of GFP-positive 293T-PSCA cells |
| --- | --- |
| CN(C)CCCN1c2ccccc2Sc2ccc(Cl)cc21 [chlorpromazine] | significant decrease |
| CCCCC[C@@H](O)[C@H]1C(=O)O[C@H](C)[C@@H](O)/C=C/C=C/C=C/C=C/C=C(\C)[C@@H](O)C[C@H](O)C[C@H](O)C[C@H](O)C[C@H](O)C[C@H](O)C[C@@H]1O [filipin III] | significant decrease |
